# Reference: patent publication EP3860599B1, “(+)-ALPHA-DIHYDROTETRABENAZINE DOSAGE REGIMEN FOR TREATING MOVEMENT DISORDERS” (Adeptio Pharmaceuticals Limited, priority 2018, dated 2020)
# Tests used:
# [1] = Plasma concentrations after oral dosing (solution in apple juice) of human volunteers, Example 1A; assay type: in vivo; details: for concentration at 1 h / concentration at 1.5 h / concentration at 2 h / concentration at 3 h / concentration at 0.5 h: human, plasma, po; for concentration at 0.5 h / plasma concentrations: 0.5 h
# Method: (+)-α-Dihydrotetrabenazine in defined amounts was administered by oral dosing (as a solution in apple juice) to six human volunteers. […] At 60 minutes after drug administration, PET scans were initiated and these were stopped at 120 minutes after drug administration. The experiment was carried out at dosages of 7.5 mg, 15 mg and 22.5 mg. […]
# VMAT2 = target: T1, VMAT2 (Homo sapiens, UniProt Q05940); assay: % VMAT2 blocking by PET scan after oral dosing of human volunteers, Example 1A; assay type: in vivo
# T1 construct: from tissue
# Source text: Complete blocking of VMAT2 is considered undesirable as this can lead to unwanted side effects, such as Parkinsonism. […] The levels of VMAT2 blocking can be determined by competitive binding studies using Positron Emission Tomography (PET). By co-administering a radioactive ligand with the compound of interest at various concentrations, the proportion of binding sites occupied can be determined (see for example, Matthews et al., "Positron emission tomography molecular imaging for drug development", Br. J. Clin. Pharmacol., 73:2, 175-186).
# Blood samples were taken at 30, 60, 120 and 180 minutes after drug administration. At 60 minutes after drug administration, PET scans were initiated and these were stopped at 120 minutes after drug administration.
# The experiment was carried out at dosages of 7.5 mg, 15 mg and 22.5 mg.
# [2] = 7.5 mg, subject 1 (112 kg), 7.5 mg oral
# [3] = 7.5 mg, subject 2 (76 kg), 7.5 mg oral
# [4] = 7.5 mg, subject 3 (129 kg), 7.5 mg oral
# [5] = 7.5 mg, subject 4 (59 kg), 7.5 mg oral
# [6] = 7.5 mg, subject 5 (91 kg), 7.5 mg oral
# [7] = 7.5 mg, subject 6 (68 kg), 7.5 mg oral
# [8] = 15 mg, subject 1 (112 kg), 15 mg oral
# [9] = 15 mg, subject 2 (76 kg), 15 mg oral
# [10] = 15 mg, subject 3 (129 kg), 15 mg oral
# [11] = 15 mg, subject 4 (59 kg), 15 mg oral
# [12] = 15 mg, subject 5 (91 kg), 15 mg oral
# [13] = 15 mg, subject 6 (68 kg), 15 mg oral
# [14] = 22.5 mg, subject 1 (112 kg), 22.5 mg oral
# [15] = 22.5 mg, subject 2 (76 kg), 22.5 mg oral
# [16] = 22.5 mg, subject 3 (129 kg), 22.5 mg oral
# [17] = 22.5 mg, subject 5 (91 kg), 22.5 mg oral
# [18] = 22.5 mg, subject 6 (68 kg), 22.5 mg oral
# T1 sequence (Q05940 whole entry): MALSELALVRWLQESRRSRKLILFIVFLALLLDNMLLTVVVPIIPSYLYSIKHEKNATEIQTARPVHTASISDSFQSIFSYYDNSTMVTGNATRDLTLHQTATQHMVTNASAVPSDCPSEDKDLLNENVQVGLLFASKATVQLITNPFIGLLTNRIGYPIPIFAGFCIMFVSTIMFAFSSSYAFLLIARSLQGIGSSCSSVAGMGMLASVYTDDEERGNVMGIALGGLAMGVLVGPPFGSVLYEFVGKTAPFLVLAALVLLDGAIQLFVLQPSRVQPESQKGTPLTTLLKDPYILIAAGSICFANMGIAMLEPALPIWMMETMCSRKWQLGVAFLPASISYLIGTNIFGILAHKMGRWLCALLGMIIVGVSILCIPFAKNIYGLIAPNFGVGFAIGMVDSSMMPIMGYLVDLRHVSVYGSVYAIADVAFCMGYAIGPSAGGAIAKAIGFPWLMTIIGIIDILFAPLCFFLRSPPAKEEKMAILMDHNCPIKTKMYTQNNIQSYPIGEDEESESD
structure (smiles),measurement,setting,value
"COc1cc2c(cc1OC)[C@H]1C[C@@H](O)[C@H](CC(C)C)CN1CC2 [(+)-α-dihydrotetrabenazine, (R,R,R)-3-isobutyl-9,10-dimethyloxy-1,3,4,5,7,11b-hexahydro-2H-pyrido[2,1-a]isoquinolin-2-ol]",concentration at 1 h,[1]; [2],0.94 ng/mL
same,concentration at 1.5 h,[1]; [2],2.39 ng/mL
same,concentration at 2 h,[1]; [2],2.44 ng/mL
same,concentration at 3 h,[1]; [2],3.01 ng/mL
same,concentration at 0.5 h,[1]; [3],0.531 ng/mL
same,concentration at 1 h,[1]; [3],13.7 ng/mL
same,concentration at 1.5 h,[1]; [3],10.8 ng/mL
same,concentration at 2 h,[1]; [3],14 ng/mL
same,concentration at 3 h,[1]; [3],22.2 ng/mL
same,concentration at 0.5 h,[1]; [4],0.216 ng/mL
same,concentration at 1 h,[1]; [4],4.35 ng/mL
same,concentration at 1.5 h,[1]; [4],6.91 ng/mL
same,concentration at 2 h,[1]; [4],5.03 ng/mL
same,concentration at 3 h,[1]; [4],6.96 ng/mL
same,concentration at 0.5 h,[1]; [5],8.43 ng/mL
same,concentration at 1 h,[1]; [5],15 ng/mL
same,concentration at 1.5 h,[1]; [5],20.7 ng/mL
same,concentration at 2 h,[1]; [5],17.6 ng/mL
same,concentration at 3 h,[1]; [5],19.6 ng/mL
same,concentration at 0.5 h,[1]; [6],6.68 ng/mL
same,concentration at 1 h,[1]; [6],9.8 ng/mL
same,concentration at 1.5 h,[1]; [6],13.5 ng/mL
same,concentration at 2 h,[1]; [6],10.7 ng/mL
same,concentration at 3 h,[1]; [6],11.2 ng/mL
same,concentration at 1 h,[1]; [7],3.77 ng/mL
same,concentration at 1.5 h,[1]; [7],3.06 ng/mL
same,concentration at 2 h,[1]; [7],4.33 ng/mL
same,concentration at 3 h,[1]; [7],9.18 ng/mL
same,concentration at 0.5 h,[1]; [8],4.02 ng/mL
same,concentration at 1 h,[1]; [8],11.1 ng/mL
same,concentration at 1.5 h,[1]; [8],10.7 ng/mL
same,concentration at 2 h,[1]; [8],10.2 ng/mL
same,concentration at 3 h,[1]; [8],10.6 ng/mL
same,concentration at 0.5 h,[1]; [9],7.99 ng/mL
same,concentration at 1 h,[1]; [9],22.8 ng/mL
same,concentration at 1.5 h,[1]; [9],46.4 ng/mL
same,concentration at 2 h,[1]; [9],35.7 ng/mL
same,concentration at 3 h,[1]; [9],46.5 ng/mL
same,concentration at 0.5 h,[1]; [10],1.2 ng/mL
same,concentration at 1 h,[1]; [10],14.3 ng/mL
same,concentration at 1.5 h,[1]; [10],17.9 ng/mL
same,concentration at 2 h,[1]; [10],12 ng/mL
same,concentration at 3 h,[1]; [10],18.2 ng/mL
same,concentration at 0.5 h,[1]; [11],26.7 ng/mL
same,concentration at 1 h,[1]; [11],53.8 ng/mL
same,concentration at 1.5 h,[1]; [11],42.5 ng/mL
same,concentration at 2 h,[1]; [11],53.3 ng/mL
same,concentration at 3 h,[1]; [11],60.2 ng/mL
same,concentration at 0.5 h,[1]; [12],15.6 ng/mL
same,concentration at 1 h,[1]; [12],34.2 ng/mL
same,concentration at 1.5 h,[1]; [12],27.1 ng/mL
same,concentration at 2 h,[1]; [12],31.8 ng/mL
same,concentration at 3 h,[1]; [12],27.1 ng/mL
same,concentration at 0.5 h,[1]; [13],5.41 ng/mL
same,concentration at 1 h,[1]; [13],10.6 ng/mL
same,concentration at 1.5 h,[1]; [13],16.1 ng/mL
same,concentration at 2 h,[1]; [13],17.4 ng/mL
same,concentration at 3 h,[1]; [13],14.9 ng/mL
same,concentration at 0.5 h,[1]; [14],9.61 ng/mL
same,concentration at 1 h,[1]; [14],18 ng/mL
same,concentration at 1.5 h,[1]; [14],16.8 ng/mL
same,concentration at 2 h,[1]; [14],14.9 ng/mL
same,concentration at 3 h,[1]; [14],13.2 ng/mL
same,concentration at 0.5 h,[1]; [15],5.23 ng/mL
same,concentration at 1 h,[1]; [15],21.8 ng/mL
same,concentration at 1.5 h,[1]; [15],36.2 ng/mL
same,concentration at 2 h,[1]; [15],40.2 ng/mL
same,concentration at 3 h,[1]; [15],51.8 ng/mL
same,concentration at 0.5 h,[1]; [16],9.04 ng/mL
same,concentration at 1 h,[1]; [16],34.7 ng/mL
same,concentration at 1.5 h,[1]; [16],29.8 ng/mL
same,concentration at 2 h,[1]; [16],26.3 ng/mL
same,concentration at 3 h,[1]; [16],17.3 ng/mL
same,concentration at 0.5 h,[1]; [17],55.3 ng/mL
same,concentration at 1 h,[1]; [17],45.1 ng/mL
same,concentration at 1.5 h,[1]; [17],46.2 ng/mL
same,concentration at 2 h,[1]; [17],41.9 ng/mL
same,concentration at 3 h,[1]; [17],42.5 ng/mL
same,concentration at 0.5 h,[1]; [18],5.58 ng/mL
same,concentration at 1 h,[1]; [18],8.01 ng/mL
same,concentration at 1.5 h,[1]; [18],5.87 ng/mL
same,concentration at 2 h,[1]; [18],12.5 ng/mL
same,concentration at 3 h,[1]; [18],18.7 ng/mL
same,plasma concentrations,"[1]; subject 1 (112 kg), 7.5 mg oral",BLQ
same,plasma concentrations,"[1]; subject 6 (68 kg), 7.5 mg oral",BLQ
same,% VMAT2 blocking,"VMAT2; even in heavier individuals, doses as low as 7.5 mg",at least 50%
same,% VMAT2 blocking,"VMAT2; subject 1 (112 kg), 7.5 mg oral, PET scan 60-120 minutes after administration",54%
same,% VMAT2 blocking,"VMAT2; subject 1 (112 kg), 15 mg oral, PET scan 60-120 minutes after administration",73%
same,% VMAT2 blocking,"VMAT2; subject 1 (112 kg), 22.5 mg oral, PET scan 60-120 minutes after administration",75%
same,% VMAT2 blocking,"VMAT2; subject 2 (76 kg), 7.5 mg oral, PET scan 60-120 minutes after administration",73%
same,% VMAT2 blocking,"VMAT2; subject 2 (76 kg), 15 mg oral, PET scan 60-120 minutes after administration",83%
same,% VMAT2 blocking,"VMAT2; subject 2 (76 kg), 22.5 mg oral, PET scan 60-120 minutes after administration",82%
same,% VMAT2 blocking,"VMAT2; subject 3 (129 kg), 7.5 mg oral, PET scan 60-120 minutes after administration",62%
same,% VMAT2 blocking,"VMAT2; subject 3 (129 kg), 15 mg oral, PET scan 60-120 minutes after administration",69%
same,% VMAT2 blocking,"VMAT2; subject 3 (129 kg), 22.5 mg oral, PET scan 60-120 minutes after administration",74%
same,% VMAT2 blocking,"VMAT2; subject 4 (59 kg), 7.5 mg oral, PET scan 60-120 minutes after administration",84%
same,% VMAT2 blocking,"VMAT2; subject 4 (59 kg), 15 mg oral, PET scan 60-120 minutes after administration",89%
same,% VMAT2 blocking,"VMAT2; subject 5 (91 kg), 7.5 mg oral, PET scan 60-120 minutes after administration",73%
same,% VMAT2 blocking,"VMAT2; subject 5 (91 kg), 15 mg oral, PET scan 60-120 minutes after administration",79%
same,% VMAT2 blocking,"VMAT2; subject 5 (91 kg), 22.5 mg oral, PET scan 60-120 minutes after administration",82%
same,% VMAT2 blocking,"VMAT2; subject 6 (68 kg), 7.5 mg oral, PET scan 60-120 minutes after administration",60%
same,% VMAT2 blocking,"VMAT2; subject 6 (68 kg), 15 mg oral, PET scan 60-120 minutes after administration",76%
same,% VMAT2 blocking,"VMAT2; subject 6 (68 kg), 22.5 mg oral, PET scan 60-120 minutes after administration",62%
